One may read the Cmax as the peak of the concentration-time curve. One may read the half-life as the time needed for the level to fall by half in the phase considered. Broadly, the bioavailability is dose-corrected exposure relative to a reference, in per cent.

Data on five compounds can be found in patent publication US20250042909A1, “POLYMORPH FORMS OF A 5H-PYRROLO[2,3-b]PYRAZINE DERIVATIVE, METHODS OF PREPARATION, AND USES THEREFORE” (BeiGene, Ltd., priority 2022, published 2025).

Structures can show the parent of a compound that is named as a salt.

The nature of data set [1]: Pharmacokinetic studies in mice. Type of data set: in vivo, male CD-1 mice. The note with it: for AUC(0-t): male, CD-1, mouse, plasma, read-out: AUC0-24h. How it is done: Compound A free form amorphous (115.7 mg) was prepared by lyophilizing a suspension of compound A free form in water with a minimum amount of acetonitrile.
(§1) Pharmacokinetic studies of Compound A were conducted in male CD-1 mice (Vital River, 8 weeks, 3 animals per dosing route) following Institutional Animal Care and Use Committee guidelines. Intravenous administration was formulated as 0.20 mg/mL solution in N,N-dimethylacetamide:30% solutol HS-15(w/v): saline=20:20:60 (V:V:V). Oral administration was formulated as 1.0 mg/mL suspension in 0.500 methyl cellulose. Blood samples were collected over a 24-h period post-dose. Plasma was isolated and processed with the below protocol: To an aliquot of 10 μL plasma was added 200 μL ACN containing 5 ng/mL terfenadine as internal standard. The mixture was vortexed for 1 m and centrifuged at 4000 rpm for 10 min. An aliquot of 50 μL supernatant was diluted with 150 μL acetonitrile/water. The concentration of Compound A was determined by LC-MS-MS. Non-compartmental pharmacokinetic analysis was performed on the concentration-time data.

Data set [2] is described as follows: Pharmacokinetic studies in rats. Particulars: for AUC(0-t): read-out: AUC0-24h. Type of data set: in vivo, male SD rats. Here is the method: as §1, with “male SD rats” for “male CD-1 mice”, “as 1.0” for “as 0.20”, “solutol HS-15(w/v):saline=20:20:60” for “solutol HS-15(w/v): saline=20:20:60”, “in 0.5%” for “in 0.500”, “1 min” for “1 m”
Data set [3] can be described thus: Solid-state chemical and physical stability under stress and storage conditions. Format: physicochemical. Particulars: for Chemical and physical stability: 25° C./92% RH open, 40° C./75% RH open, 60° C. tight container, over 1 week. How it is done:
Solid form stability of freeform Type A was investigated in process solvents EtOH/H2O and MeOH/H2O. […] Purity change in all the rest conditions (40° C./75% RH/open for 2 weeks, 60° C./sealed for 10 days, RT/92.5% RH/open for 10 days, 25° C./60% RH/open for 8 weeks and UV (290 wμ/cm2) for 3 days) was less than 0.4 area %. […]

Data set [4] can be described thus: Dynamic vapor sorption (DVS) hygroscopicity test. Format: physicochemical. The note with it: for Hygroscopicity: DVS at 25° C. How it is done: Dynamic vapor sorption (DVS) analysis was conducted using SMS DVS Intrinsic using one of below methods:
Sample was weighted to the microbalance. The relative humidity was set to 0% with N2 flow of 200 sccm. The equilibrium was assumed when the weight change of the sample was <0.001 wt % in 10 min or by a maximum equilibration time of 180 minutes. […] Between two equilibrium steps, dm/dt is 0.002%/min. At each equilibrium step, the equilibrium was assumed when the weight change of the sample was <0.001 wt % in 10 min or by a maximum equilibration time of 180 minutes.
Sample was weighted to the microbalance. The relative humidity was set to the closes decile of ambient humidity with N2 flow of 200 sccm. The equilibrium was assumed when the weight change of the sample was <0.001 wt % in 10 min or by a maximum equilibration time of 180 minutes. […] Between two equilibrium steps, dm/dt is 0.002%/min. At each equilibrium step, the equilibrium was assumed when the weight change of the sample was <0.001 wt % in 10 min or by a maximum equilibration time of 180 minutes.
Sample was weighted to the microbalance. The relative humidity was set to 40% with N2 flow of 200 sccm. The equilibrium was assumed when the weight change of the sample was <0.001 wt % in 60 min or by a maximum equilibration time of 360 minutes. […] Between two equilibrium steps, dm/dt is 0.002%/min. At each equilibrium step, the equilibrium was assumed when the weight change of the sample was <0.001 wt % in 60 min or by a maximum equilibration time of 360 minutes.

Data set [5] in a line: Solid form stability in process solvents. The note with it: MeOH at 50° C. Type of data set: physicochemical. How it is done: Solid form stability of freeform Type A was investigated in process solvents EtOH/H2O and MeOH/H2O. […] Purity change in all the rest conditions (40° C./75% RH/open for 2 weeks, 60° C./sealed for 10 days, RT/92.5% RH/open for 10 days, 25° C./60% RH/open for 8 weeks and UV (290 wμ/cm2) for 3 days) was less than 0.4 area %.

[6] abbreviates: PO Dose 10 mpk calculated as free form, 10 mg/kg.
Setting [7] is: male, SD, rat, plasma, po, 10 mg/kg, PO Dose 10 mpk calculated as free form.

Take `Cc1cc(-c2c[nH]c3ncc(-c4cc(C)c5c(c4)CCN(C)C5)nc23)ccc1C(=O)N(C)C` [Compound A free form amorphous, 4-[2-(2,8-dimethyl-1,2,3,4-tetrahydroisoquinolin-6-yl)-5H-pyrrolo[2,3-b]pyrazin-7-yl]-N,N,2-trimethylbenzamide]: the Cmax in data set [1] (setting [6]) was 177 ng/mL; in data set [2] (male, SD, rat, plasma, po, 10 mg/kg, PO Dose 10 mpk calculated as free form, read-out: Cmax), 235 ng/mL. For the same compound, the F % in data set [1] (setting [6]) is reported as 55.2%. Also, in data set [1] (setting [6]), the t1/2 is recorded as 3.63 h. Further, the tmax was 3.50 h in data set [1] (setting [6]) and 2 h in data set [2] (male, SD, rat, plasma, po, 10 mg/kg, PO Dose 10 mpk calculated as free form, read-out: tmax). The AUC(0-t) in data set [1] (iv, 1 mg/kg, IV Dose 1 mpk calculated as free form) was 344 ng·h/mL; in data set [1] (po, 10 mg/kg, PO Dose 10 mpk calculated as free form) it was 1900 ng·h/mL; in data set [2] (male, SD, rat, plasma, iv, 1 mg/kg, IV Dose 1 mpk calculated as free form), 656 ng·h/mL; in data set [2] (setting [7]), 1120 ng·h/mL. The half-life in data set [2] (male, SD, rat, plasma, 10 mg/kg, PO Dose 10 mpk calculated as free form) is 4.05 h. For the same compound, the bioavailability in data set [2] (setting [7]) was 17.2%.
Turning to `Cc1cc(-c2c[nH]c3ncc(-c4cc(C)c5c(c4)CCN(C)C5)nc23)ccc1C(=O)N(C)C` [Citrate Type B, 4-[2-(2,8-dimethyl-1,2,3,4-tetrahydroisoquinolin-6-yl)-5H-pyrrolo[2,3-b]pyrazin-7-yl]-N,N,2-trimethylbenzamide], in data set [3] (ambient and open conditions (about 25° C. and about 80% RH) over 1 week), the “Form conversion on storage” value is “converted to Type A”.
For `Cc1cc(-c2c[nH]c3ncc(-c4cc(C)c5c(c4)CCN(C)C5)nc23)ccc1C(=O)N(C)C` [L-malate salt Type A, 4-[2-(2,8-dimethyl-1,2,3,4-tetrahydroisoquinolin-6-yl)-5H-pyrrolo[2,3-b]pyrazin-7-yl]-N,N,2-trimethylbenzamide], the “Chemical and physical stability” value in data set [3] is “chemically and physically stable”. The “Form change after the DVS test” value in data set [4] is listed as “No form change”. The Hygroscopicity entry in data set [4] (listed as L-malate salt Pattern A) is “hygroscopic”. Besides, in data set [4] (from 40% RH to 95% RH at 25° C.), the “Water absorbed (DVS)” value is on record as “about 7.9%”.
For the compound `Cc1cc(-c2c[nH]c3ncc(-c4cc(C)c5c(c4)CCN(C)C5)nc23)ccc1C(=O)N(C)C` [Compound A citrate type A, 4-[2-(2,8-dimethyl-1,2,3,4-tetrahydroisoquinolin-6-yl)-5H-pyrrolo[2,3-b]pyrazin-7-yl]-N,N,2-trimethylbenzamide], in data set [1] (setting [6]), the AUC0-24h was 2990 ng·h/mL, the Cmax is 640 ng/mL, the F % was 86.9% and the t1/2 was 7.95 h. The tmax in data set [1] (setting [6]) is given as 1.50 h. Moreover, in data set [2] (setting [6]), the AUC0-24h is 1603 ng·h/mL, the Cmax is 445 ng/mL, the F % was 24.4% and the tmax is 2.67 h. Further, in data set [3] (3-month experiment), the Long-term stability entry is recorded as “excellent long-term stability”. In addition, in data set [3], the “Chemical and physical stability” value was “chemically and physically stable”. In addition, in data set [4], the “Form change after the DVS test” value is “No form change”. For the same compound, the Hygroscopicity entry in data set [4] (listed as citrate salt type A) is listed as “slightly hygroscopic”. The “Water absorbed (DVS)” value in data set [4] (from 0% RH to 95% RH at 25° C.) is “about 0.7%”.
Turning to `Cc1cc(-c2c[nH]c3ncc(-c4cc(C)c5c(c4)CCN(C)C5)nc23)ccc1C(=O)N(C)C` [freeform Type A, 4-[2-(2,8-dimethyl-1,2,3,4-tetrahydroisoquinolin-6-yl)-5H-pyrrolo[2,3-b]pyrazin-7-yl]-N,N,2-trimethylbenzamide], the “HPLC area purity change” value in data set [3] (40° C./75% RH/open 2 weeks, 60° C./sealed 10 days, RT/92.5% RH/open 10 days, 25° C./60% RH/open 8 weeks, UV 3 days) is given as “less than 0.4 area %”. The “HPLC area purity decrease” value in data set [3] (Vis (10000 Lux) for 5 days) is given as about 1.2 area %. In addition, in data set [3] (under the laboratory conditions), the “Form change (physical stability)” value is “No form change”. The “Form change in process solvent” value in data set [5] is “No form change”.
